# Assay results as given in patent US20250230193A1, “CYCLIC COMPOUND HAVING SELECTIVE KRAS INHIBITORY EFFECT ON HRAS AND NRAS” (CHUGAI SEIYAKU KABUSHIKI KAISHA, priority 2022, published 2025).
# *1 amine or outer side, *2 acyl side, *3 side chain or, on linkers, in order; H or OH if unused. Where a SMILES comes first, the peptide text is derived from it. Bridges are numbered along the chain shown (N, C = ends). [ ]: non-standard residue; d: D form. The star is where a group is joined. hPhe(3-Cl-4-CF3) = N[C@@H](CCc1ccc(C(F)(F)F)c(Cl)c1)C(=O)O; NPrPhe(4-CF3) = CCCN[C@@H](Cc1ccc(C(F)(F)F)cc1)C(=O)O; NPrAsp = CCCN([C@@H](CC(=O)[*:3])C(=O)[*:2])[*:1]; NMeGly(cPent) = CN[C@H](C(=O)O)C1CCCC1; Hyp = O=C(O)[C@@H]1C[C@@H](O)CN1; NMeL = CN[C@@H](CC(C)C)C(=O)O; NMeNva = CCC[C@H](NC)C(=O)O; Morpholide = C1CN(*)CCO1; Ac4c = NC1(C(=O)O)CCC1; Sar = CNCC(=O)O
# Tests used:
# [1] = target: GDP-bound NRAS wild-type protein (Homo sapiens, UniProt P01111); assay: Binding to NRAS by surface plasmon resonance (SPR), Single Cycle Kinetics; conditions: SPR; for NRAS/KRAS (ratio of KD value for NRAS to KD value for KRAS) / NRAS/KRAS (ratio of KD value with respect to NRAS to KD value with respect to KRAS): GDP-bound NRAS wild-type vs GDP-bound KRAS wild-type
# [2] = target: GDP-bound HRAS wild-type protein (Homo sapiens, UniProt P01112); assay: Binding to HRAS by surface plasmon resonance (SPR), Single Cycle Kinetics; conditions: SPR; for HRAS/KRAS (ratio of KD value for HRAS to KD value for KRAS) / HRAS/KRAS (ratio of KD value with respect to HRAS to KD value with respect to KRAS): GDP-bound HRAS wild-type vs GDP-bound KRAS wild-type
# Sequence of GDP-bound HRAS wild-type protein (P01112 whole entry): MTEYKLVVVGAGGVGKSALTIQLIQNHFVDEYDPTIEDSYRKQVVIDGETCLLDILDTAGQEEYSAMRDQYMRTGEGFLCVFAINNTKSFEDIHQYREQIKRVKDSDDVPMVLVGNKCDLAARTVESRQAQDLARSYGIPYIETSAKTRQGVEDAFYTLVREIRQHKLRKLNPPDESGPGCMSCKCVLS
# Sequence of GDP-bound NRAS wild-type protein (P01111 whole entry): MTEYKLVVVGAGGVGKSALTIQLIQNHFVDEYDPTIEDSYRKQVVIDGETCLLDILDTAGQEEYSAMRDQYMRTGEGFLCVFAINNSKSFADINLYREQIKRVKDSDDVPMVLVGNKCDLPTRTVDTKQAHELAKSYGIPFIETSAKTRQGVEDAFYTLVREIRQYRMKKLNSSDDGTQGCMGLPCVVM
smiles,measurement,setting,value
CCC[C@H]1C(=O)N[C@@H]([C@@H](C)CC)C(=O)N(C)CC(=O)N(C)CC(=O)N(CCC)[C@@H](Cc2ccc(C(F)(F)F)cc2)C(=O)N(C)CC(=O)N[C@@H](CCc2ccc(C(F)(F)F)c(Cl)c2)C(=O)N2CCC[C@H]2C(=O)NC2(CCC2)C(=O)N(C)[C@@H](C2CCCC2)C(=O)N(CCC)[C@H](C(=O)N2CCOCC2)CC(=O)N1C [PP1954] ([NMeNva]I[Sar][Sar][NPrPhe(4-CF3)][Sar][hPhe(3-Cl-4-CF3)]P[Ac4c][NMeGly(cPent)][NPrAsp]-Morpholide; lactam N-11),NRAS/KRAS (ratio of KD value for NRAS to KD value for KRAS),[1],B (a compound having 3 or more and less than 10 is denoted as B)
same,HRAS/KRAS (ratio of KD value for HRAS to KD value for KRAS),[2],B (a compound having 3 or more and less than 10 is denoted as B)
CC[C@H](C)[C@@H]1NC(=O)[C@H](CC(C)C)N(C)C(=O)C[C@@H](C(=O)N(C)C)N(C)C(=O)[C@H](C2CCCC2)N(C)C(=O)C2(CCC2)NC(=O)[C@@H]2C[C@H](C)CN2C(=O)[C@H](CCc2cc(F)c(C(F)(F)F)c(F)c2)NC(=O)CN(C)C(=O)[C@H](Cc2ccc(C)cc2)N2CC/C=C\C[C@@H](C2=O)N(C)C(=O)CN(C)C1=O [PP1864],NRAS/KRAS (ratio of KD value for NRAS to KD value for KRAS),[1],A (a compound having 10 or more and less than 20 is denoted as A)
same,HRAS/KRAS (ratio of KD value for HRAS to KD value for KRAS),[2],B (a compound having 3 or more and less than 10 is denoted as B)
CCC[C@H]1C(=O)N[C@@H]([C@@H](C)CC)C(=O)N(C)CC(=O)N(C)[C@H]2C/C=C\CCN(C2=O)[C@@H](CC2CCC(F)(F)CC2)C(=O)N(C)CC(=O)N[C@@H](CCc2ccc(C(F)(F)F)c(OC)c2)C(=O)N2C[C@H](OCC)C[C@H]2C(=O)N(C)C2(CCC2)C(=O)N(C)[C@@H](C2CCCC2)C(=O)N(C)[C@H](C(=O)N(C)C)CC(=O)N1C [PP2348],NRAS/KRAS (ratio of KD value with respect to NRAS to KD value with respect to KRAS),[1],A (a compound having 10 or more and less than 20 is denoted as A)
same,HRAS/KRAS (ratio of KD value with respect to HRAS to KD value with respect to KRAS),[2],A (a compound having 10 or more and less than 20 is denoted as A)
CC[C@H](C)[C@@H]1NC(=O)[C@H](CC)N(C)C(=O)C[C@@H](C(=O)N(C)C)N(CC)C(=O)[C@H](C2CCCC2)N(C)C(=O)C2(CCC2)NC(=O)[C@@H]2CCN2C(=O)[C@H](CCc2cc(F)c(C(F)(F)F)c(F)c2)NC(=O)CN(C)C(=O)[C@H](Cc2ccc(C(F)(F)F)cc2)N2CCCC[C@@H](C2=O)N(C)C(=O)CN(C)C1=O [PP0660],NRAS/KRAS (ratio of KD value with respect to GDP-bound NRAS wild-type protein to KD value with respect to KRAS),[1]; KD ratio NRAS/KRAS,B (a compound having 3 or more and less than 10 is denoted as B)
same,HRAS/KRAS (ratio of KD value with respect to GDP-bound HRAS wild-type protein to KD value with respect to KRAS),[2]; KD ratio HRAS/KRAS,B (a compound having 3 or more and less than 10 is denoted as B)
CCCN(C)C(=O)[C@@H]1CC(=O)N(C)[C@@H](COCC)C(=O)N[C@@H]([C@@H](C)CC)C(=O)N(C)CC(=O)N(C)[C@H]2C/C=C\CCN(C2=O)[C@@H](Cc2ccc(C(F)(F)F)cc2)C(=O)N(C)CC(=O)N[C@@H](CCc2cc(F)c(C(F)(F)F)c(F)c2)C(=O)N2C[C@@H](C)C[C@H]2C(=O)NC2(CC(C)(C)C2)C(=O)N(C)[C@@H](C2CCCC2)C(=O)N1C [PP2041],NRAS/KRAS (ratio of KD value with respect to NRAS to KD value with respect to KRAS),[1],A (a compound having 10 or more and less than 20 is denoted as A)
same,HRAS/KRAS (ratio of KD value with respect to HRAS to KD value with respect to KRAS),[2],A (a compound having 10 or more and less than 20 is denoted as A)
CC[C@H](C)[C@@H]1NC(=O)[C@H](CC2CC2)N(C)C(=O)C[C@@H](C(=O)N(C)C)N(C)C(=O)[C@H](C2CCCC2)N(C)C(=O)C2(CCC2)N(C)C(=O)[C@@H]2C[C@@H](C)CN2C(=O)[C@H](CCc2cc(F)c(C(F)(F)F)c(F)c2)NC(=O)CN(C)C(=O)[C@H](Cc2ccc(C)cc2)N2CC/C=C\C[C@@H](C2=O)N(C)C(=O)CN(C)C1=O [PP1800],NRAS/KRAS (ratio of KD value for NRAS to KD value for KRAS),[1],A (a compound having 10 or more and less than 20 is denoted as A)
same,HRAS/KRAS (ratio of KD value for HRAS to KD value for KRAS),[2],A (a compound having 10 or more and less than 20 is denoted as A)
CCCN1C(=O)CN(C)C(=O)CN(C)C(=O)[C@H]([C@@H](C)CC)NC(=O)[C@H](CC(C)C)N(C)C(=O)C[C@@H](C(=O)N2CCOCC2)NC(=O)[C@H](C2CCCC2)N(C)C(=O)C2(CCC2)NC(=O)[C@@H]2C[C@@H](OCC)CN2C(=O)[C@H](CCc2ccc(C(F)(F)F)c(Cl)c2)NC(=O)CN(C)C(=O)[C@@H]1Cc1ccc(C(F)(F)F)cc1 [PP0324] ([NMeL]I[Sar][Sar][NPrPhe(4-CF3)][Sar][hPhe(3-Cl-4-CF3)][Hyp](Et)[Ac4c][NMeGly(cPent)]D-Morpholide; lactam N-11),NRAS/KRAS (ratio of KD for GDP-bound NRAS wild-type to KD for KRAS),[1]; KD ratio NRAS/KRAS,B (a compound having 3 or more and less than 10 is denoted as B)
same,HRAS/KRAS (ratio of KD for GDP-bound HRAS wild-type to KD for KRAS),[2]; KD ratio HRAS/KRAS,B (a compound having 3 or more and less than 10 is denoted as B)
